{"source": "patent US20230218589A1", "about": "“COMPOUND FOR PREVENTION OR TREATMENT OF A SKIN CANCER OR SKIN PRECANCER” (UNIQUEST PTY LTD, priority 2020, published 2023)", "key": {"human T cells": {"system": "human T cells", "test": "Human T cell proliferation assay (PBMCs, anti-CD3, CellTiter-Glo)", "format": "cell-based", "conditions": "50 ng/mL cyclosporine A, anti-CD3, 5 days", "procedure": "Cyclosporine A 1 mg/mL stock (CsA—Sigma) was dissolved in DMSO, Rapamycin 5 mg/mL stock (LC Labs) was dissolved in ethanol.\nUnder sterile conditions, a 96 well flat bottom plate with white opaque walls (Perkin Elmer) was coated with 10 μg per well of purified human anti-CD3 antibody (clone OKT-3; Biolegend) in a volume of 50 μL per well in sterile PBS. The plate was covered in parafilm and incubated overnight at 4° C. Just prior to addition of Peripheral Blood Mononuclear Cells (PBMCs), the antibody solution was removed and discarded using a multichannel pipette. Wells were washed by adding 200 μL sterile PBS to each well and incubating for 2 min. PBS wash solution was removed and discarded following incubation. The wash step was repeated once, for a total of two PBS washes.\n20 mL of blood from a consenting healthy volunteer was collected into lithium heparin vacuette containers (Greiner Bio-One). Under sterile conditions, blood from each container was pooled into a single tube and mixed thoroughly with 20 mL FACS buffer (2% FBS in 1×PBS). 15 mL Ficoll-Paque (GE Healthcare) was added to two 50 mL Falcon tubes, before 20 mL of whole blood/FACS buffer mixture was carefully and slowly dispensed on top of the Ficoll layer. Tubes were centrifuged at 800 g for 20 min at room temperature with the brake off. After centrifugation, the resulting PBMC layer between the plasma and Ficoll layers was carefully removed and transferred to a new 50 mL Falcon tube. Tubes were topped up to 45 mL with FACS buffer, then centrifuged at 500 g for 15 min. Supernatant was carefully removed without disturbing cell pellet, then PBMCs from both tubes were pooled. 30 mL of pre-warmed complete RPMI media [RPMI 1640 (Gibco), 10% heat inactivated FBS (Gibco), 1× Penicillin/Streptomycin/L-Glutamine (Gibco), 100 μM 2-Mercaptoethanol (Sigma)] was added to PBMCs, before centrifugation at 500 g for 15 min at room temperature. Supernatant was removed carefully without disturbing cell pellet. PBMCs were resuspended in 1 mL complete RPMI media.\nPBMCs were counted manually using a haemocytometer and cell concentration was adjusted to 1.5×10^6 cells/mL with complete RPMI media. 50 μL of cell suspension was added to appropriate wells of the 96 well flat bottom plate with white opaque walls pre-coated in human anti-CD3. The final number of cells per well was 7.5×10^4.\nCells were incubated in a humidified incubator at 37° C. with 5% CO2 for 1 hour before Compound 1 (or vehicle only) was diluted in complete RPMI medium and added to the appropriate wells at the concentration required. The final volume in all wells was 100 μL. Cells were incubated for 5 days in a humidified incubator at 37° C. with 5% CO2.\nCellTiter-Glo Luminescent Cell Viability Assay (Promega) was performed to determine the level of metabolically active cells per well based on ATP quantification. CellTiter-Glo Buffer and lyophilised CellTiter-Glo Substrate were equilibrated to room temperature. CellTiter-Glo Substrate was reconstituted with 10 mL CellTiter-Glo Buffer and gently vortexed for 1 minute to create the CellTiter-Glo Reagent. The 96 well plate containing PBMCs was equilibrated to room temperature for 30 min. Once at room temperature, 100 μL of CellTiter-Glo Reagent was dispensed using a multichannel pipette into each well containing 100 μL cells and media. The plate was mixed for 2 min at room temperature on an orbital shaker to induce cell lysis. The plate was then incubated for 10 min at room temperature in the dark to stabilize the luminescence signal. Luminescence signal was recorded using a CLARIOstar Plus plate reader (BMG Labtech).\nPBMCs were stimulated with human anti-CD3 antibody and T cells were allowed to proliferate at 37° C. with 5% CO2 in a humidified incubator for 5 days. Proliferation/viability was assessed via a CellTiter-Glo Luminescent Cell Viability Assay and luminescence was read using a CLARIOstar Plus plate reader. […]"}, "actinic keratoses (AKs)": {"system": "actinic keratoses (AKs)", "conditions": "topical therapy, organ transplant recipients (Heppt et al. 2019); cited from earlier work"}}}
{"compound": "cyclosporine A [reference compound]", "values": [{"measurement": "T cell proliferation compared to the vehicle control", "setting": "human T cells", "value": "inhibited"}]}
{"compound": "O=c1[nH]cc(F)c(=O)[nH]1", "note": "[5-fluorouracil]", "values": [{"measurement": "complete clearance rate of AKs", "setting": "actinic keratoses (AKs)", "value": 11, "unit": "%"}]}
{"compound": "CC(C)Cn1cnc2c(N)nc3ccccc3c21", "note": "[imiquimod]", "values": [{"measurement": "complete clearance rate of AKs", "setting": "actinic keratoses (AKs)", "value": "27.5-62.1%"}]}
